{
  "source": "patent US12503484B2",
  "about": "“Androstane derivatives with activity as pure or predominantly pure stimulators of SERCA2a for the treatment of heart failure” (Seismic Pharmaceuticals, priority 2019, dated 2025)",
  "key": {"Estrogen ERα": {"biological_target": "Estrogen ERα (Homo sapiens (Human), UniProt P03372)", "sequence (P03372 whole entry)": "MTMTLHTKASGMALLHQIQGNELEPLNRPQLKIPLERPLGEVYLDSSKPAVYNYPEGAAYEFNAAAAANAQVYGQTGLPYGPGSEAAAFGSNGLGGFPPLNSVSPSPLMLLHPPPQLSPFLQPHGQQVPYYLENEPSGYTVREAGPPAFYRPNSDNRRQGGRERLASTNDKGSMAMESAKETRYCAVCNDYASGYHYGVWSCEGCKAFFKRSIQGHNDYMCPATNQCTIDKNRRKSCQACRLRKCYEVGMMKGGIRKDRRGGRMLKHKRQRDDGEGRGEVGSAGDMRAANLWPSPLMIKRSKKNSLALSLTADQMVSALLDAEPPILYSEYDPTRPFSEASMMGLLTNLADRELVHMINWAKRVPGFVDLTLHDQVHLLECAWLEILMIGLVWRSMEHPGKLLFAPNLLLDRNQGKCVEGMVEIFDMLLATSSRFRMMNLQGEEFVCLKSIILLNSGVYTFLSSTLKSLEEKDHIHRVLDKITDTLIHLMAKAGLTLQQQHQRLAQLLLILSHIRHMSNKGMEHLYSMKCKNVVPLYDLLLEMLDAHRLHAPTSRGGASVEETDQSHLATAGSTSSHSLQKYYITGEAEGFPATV", "assay": "Receptor binding assay panel: Estrogen ERα"}, "Muscarinic M2": {"biological_target": "Muscarinic M2 (Homo sapiens (Human), UniProt P08172)", "assay": "Receptor binding assay panel: Muscarinic M2", "protocol": "(§1) Radioligand binding to a panel of receptors was carried out by Eurofins on crude membrane preparations according to published procedures and by using appropriate reference standard (Eurofin, Taiwan, compound code CVie216-3 (1226840), study #TW04-0004235, quote #TW04-0004235-Q04, for Cvie Therapeutics Limited, Taiwan). […] was tested at the concentration of 10 μM."}, "Insulin": {"biological_target": "Insulin (Rattus norvegicus (Rat), UniProt P15127)", "assay": "Receptor binding assay panel: Insulin"}, "Histamine H1": {"biological_target": "Histamine H1 (Homo sapiens (Human), UniProt P35367)", "assay": "Receptor binding assay panel: Histamine H1"}, "Progesterone PR-B": {"biological_target": "Progesterone PR-B (Homo sapiens (Human), UniProt P06401)", "assay": "Receptor binding assay panel: Progesterone PR-B"}, "Sigma σ2": {"biological_target": "Sigma σ2 (Homo sapiens (Human), UniProt Q5BJF2)", "sequence (Q5BJF2 whole entry)": "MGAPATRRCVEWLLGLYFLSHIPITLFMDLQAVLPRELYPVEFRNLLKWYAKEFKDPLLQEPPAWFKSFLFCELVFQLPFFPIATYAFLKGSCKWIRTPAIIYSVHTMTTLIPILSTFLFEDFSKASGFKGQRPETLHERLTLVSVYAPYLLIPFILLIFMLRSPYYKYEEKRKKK", "assay": "Receptor binding assay panel: Sigma σ2"}, "[1]": {"test_system": "Glutamate, NMDA, Phencyclidine", "assay": "Receptor binding assay panel: Glutamate, NMDA, Phencyclidine", "parameters": "species or system rat", "conditions": "10 μM", "protocol": "as §1"}, "Estrogen ERβ": {"biological_target": "Estrogen ERβ (Homo sapiens (Human), UniProt Q92731)", "assay": "Receptor binding assay panel: Estrogen ERβ"}, "[2]": {"test_system": "GABAA, Flunitrazepam, Central", "assay": "Receptor binding assay panel: GABAA, Flunitrazepam, Central", "parameters": "species or system rat", "conditions": "10 μM", "protocol": "as §1"}, "[3]": {"biological_target": "Nicotinic Acetylcholine α3β4 (Homo sapiens (Human), UniProt P30926+P32297)", "assay": "Receptor binding assay panel: Nicotinic Acetylcholine α3β4", "protocol": "as §1"}, "Muscarinic M5": {"biological_target": "Muscarinic M5 (Homo sapiens (Human), UniProt P08912)", "assay": "Receptor binding assay panel: Muscarinic M5", "protocol": "as §1"}, "CYP450, 19 (CYP19)": {"biological_target": "CYP450, 19 (CYP19) (Homo sapiens (Human), UniProt P11511)", "assay": "Receptor binding assay panel: CYP450, 19"}, "Angiotensin AT1": {"biological_target": "Angiotensin AT1 (Homo sapiens (Human), UniProt P30556)", "sequence (P30556 whole entry)": "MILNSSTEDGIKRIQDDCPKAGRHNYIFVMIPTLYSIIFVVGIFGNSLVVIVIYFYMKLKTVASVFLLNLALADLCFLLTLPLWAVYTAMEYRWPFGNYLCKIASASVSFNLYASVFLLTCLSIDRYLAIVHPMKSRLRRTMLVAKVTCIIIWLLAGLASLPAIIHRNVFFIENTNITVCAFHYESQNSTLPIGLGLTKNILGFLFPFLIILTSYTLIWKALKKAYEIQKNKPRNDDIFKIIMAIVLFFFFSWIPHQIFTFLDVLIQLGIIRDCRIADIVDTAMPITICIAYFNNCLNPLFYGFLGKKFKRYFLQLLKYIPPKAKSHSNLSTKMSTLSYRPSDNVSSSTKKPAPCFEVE", "assay": "Receptor binding assay panel: Angiotensin AT1"}, "Adenosine A1": {"biological_target": "Adenosine A1 (Homo sapiens (Human), UniProt P30542)", "assay": "Receptor binding assay panel: Adenosine A1"}, "panel of receptors": {"test_system": "panel of receptors", "assay": "Radioligand binding to a panel of receptors (Eurofins)", "conditions": "10 μM"}, "Phorbol Ester": {"test_system": "Phorbol Ester", "assay": "Receptor binding assay panel: Phorbol Ester", "parameters": "species or system mouse", "conditions": "10 μM"}, "Adrenergic β2": {"biological_target": "Adrenergic β2 (Homo sapiens (Human), UniProt P07550)", "assay": "Receptor binding assay panel: Adrenergic β2"}, "Adrenergic α2A": {"biological_target": "Adrenergic α2A (Homo sapiens (Human), UniProt P08913)", "assay": "Receptor binding assay panel: Adrenergic α2A", "protocol": "as §1"}, "[4]": {"biological_target": "Nitric Oxide Synthase, Endothelial (eNOS) (Bos taurus (Bovine), UniProt P29473)", "assay": "Receptor binding assay panel: Nitric Oxide Synthase, Endothelial (eNOS)", "type": "biochemical"}, "Dopamine D2s": {"biological_target": "Dopamine D2s (Homo sapiens (Human), UniProt P14416)", "sequence (P14416 other isoform, or with tags, fused parts or gaps)": "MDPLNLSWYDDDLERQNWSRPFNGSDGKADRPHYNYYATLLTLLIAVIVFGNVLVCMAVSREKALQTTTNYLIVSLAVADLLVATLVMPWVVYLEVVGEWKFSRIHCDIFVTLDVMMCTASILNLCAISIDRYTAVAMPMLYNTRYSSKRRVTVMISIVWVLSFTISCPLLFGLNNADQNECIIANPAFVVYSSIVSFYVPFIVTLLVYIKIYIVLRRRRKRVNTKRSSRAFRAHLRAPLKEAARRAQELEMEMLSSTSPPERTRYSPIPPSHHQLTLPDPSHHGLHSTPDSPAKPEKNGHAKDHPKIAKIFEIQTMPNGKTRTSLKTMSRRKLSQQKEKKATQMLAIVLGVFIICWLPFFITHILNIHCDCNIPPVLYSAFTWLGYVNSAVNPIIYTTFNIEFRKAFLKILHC", "assay": "Receptor binding assay panel: Dopamine D2s"}, "Monoamine Oxidase MAO-A": {"biological_target": "Monoamine Oxidase MAO-A (Homo sapiens (Human), UniProt P21397)", "assay": "Receptor binding assay panel: Monoamine Oxidase MAO-A", "type": "biochemical"}, "Sodium Channel, Site 2": {"test_system": "Sodium Channel, Site 2", "assay": "Receptor binding assay panel: Sodium Channel, Site 2", "parameters": "species or system rat", "conditions": "10 μM"}, "hERG potassium channel": {"biological_target": "hERG potassium channel (Homo sapiens (Human), UniProt Q12809)", "sequence (Q12809 whole entry)": "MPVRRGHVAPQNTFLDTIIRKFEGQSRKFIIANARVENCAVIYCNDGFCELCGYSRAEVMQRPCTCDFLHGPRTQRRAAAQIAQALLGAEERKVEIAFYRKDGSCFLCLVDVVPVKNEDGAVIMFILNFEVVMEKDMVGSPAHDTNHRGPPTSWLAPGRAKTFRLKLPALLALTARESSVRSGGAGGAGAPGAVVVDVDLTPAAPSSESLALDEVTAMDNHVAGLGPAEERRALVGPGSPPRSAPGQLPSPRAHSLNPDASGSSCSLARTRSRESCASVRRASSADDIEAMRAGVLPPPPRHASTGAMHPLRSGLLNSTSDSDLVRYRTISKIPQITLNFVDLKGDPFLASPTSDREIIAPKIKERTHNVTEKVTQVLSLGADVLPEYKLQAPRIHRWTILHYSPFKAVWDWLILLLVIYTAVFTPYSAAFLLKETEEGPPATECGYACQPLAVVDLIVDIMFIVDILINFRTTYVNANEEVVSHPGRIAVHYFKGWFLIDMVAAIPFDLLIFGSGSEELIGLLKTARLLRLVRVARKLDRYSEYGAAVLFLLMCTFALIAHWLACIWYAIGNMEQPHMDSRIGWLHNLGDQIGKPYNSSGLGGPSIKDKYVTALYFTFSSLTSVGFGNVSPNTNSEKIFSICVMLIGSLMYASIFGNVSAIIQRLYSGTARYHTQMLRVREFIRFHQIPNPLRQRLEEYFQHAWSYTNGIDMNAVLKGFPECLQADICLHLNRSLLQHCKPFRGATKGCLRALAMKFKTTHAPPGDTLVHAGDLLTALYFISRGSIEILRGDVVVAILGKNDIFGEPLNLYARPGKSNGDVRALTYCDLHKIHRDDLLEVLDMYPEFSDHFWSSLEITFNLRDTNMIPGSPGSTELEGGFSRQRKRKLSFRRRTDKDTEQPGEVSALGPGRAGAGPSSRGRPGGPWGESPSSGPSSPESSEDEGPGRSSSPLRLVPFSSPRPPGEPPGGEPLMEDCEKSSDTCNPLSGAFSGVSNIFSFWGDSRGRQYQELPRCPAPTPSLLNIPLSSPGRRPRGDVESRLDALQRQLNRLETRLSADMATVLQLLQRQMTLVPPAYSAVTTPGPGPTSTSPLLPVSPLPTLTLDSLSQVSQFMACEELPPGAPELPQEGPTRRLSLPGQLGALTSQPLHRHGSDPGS", "assay": "Receptor binding assay panel: Potassium Channel hERG", "conditions": "crude membrane preparations", "protocol": "as §1"}, "Potassium Channel (KATP)": {"biological_target": "Potassium Channel (KATP) (Cricetus cricetus (Black-bellied hamster), UniProt Q09427)", "sequence (Q09427 whole entry, looked up)": "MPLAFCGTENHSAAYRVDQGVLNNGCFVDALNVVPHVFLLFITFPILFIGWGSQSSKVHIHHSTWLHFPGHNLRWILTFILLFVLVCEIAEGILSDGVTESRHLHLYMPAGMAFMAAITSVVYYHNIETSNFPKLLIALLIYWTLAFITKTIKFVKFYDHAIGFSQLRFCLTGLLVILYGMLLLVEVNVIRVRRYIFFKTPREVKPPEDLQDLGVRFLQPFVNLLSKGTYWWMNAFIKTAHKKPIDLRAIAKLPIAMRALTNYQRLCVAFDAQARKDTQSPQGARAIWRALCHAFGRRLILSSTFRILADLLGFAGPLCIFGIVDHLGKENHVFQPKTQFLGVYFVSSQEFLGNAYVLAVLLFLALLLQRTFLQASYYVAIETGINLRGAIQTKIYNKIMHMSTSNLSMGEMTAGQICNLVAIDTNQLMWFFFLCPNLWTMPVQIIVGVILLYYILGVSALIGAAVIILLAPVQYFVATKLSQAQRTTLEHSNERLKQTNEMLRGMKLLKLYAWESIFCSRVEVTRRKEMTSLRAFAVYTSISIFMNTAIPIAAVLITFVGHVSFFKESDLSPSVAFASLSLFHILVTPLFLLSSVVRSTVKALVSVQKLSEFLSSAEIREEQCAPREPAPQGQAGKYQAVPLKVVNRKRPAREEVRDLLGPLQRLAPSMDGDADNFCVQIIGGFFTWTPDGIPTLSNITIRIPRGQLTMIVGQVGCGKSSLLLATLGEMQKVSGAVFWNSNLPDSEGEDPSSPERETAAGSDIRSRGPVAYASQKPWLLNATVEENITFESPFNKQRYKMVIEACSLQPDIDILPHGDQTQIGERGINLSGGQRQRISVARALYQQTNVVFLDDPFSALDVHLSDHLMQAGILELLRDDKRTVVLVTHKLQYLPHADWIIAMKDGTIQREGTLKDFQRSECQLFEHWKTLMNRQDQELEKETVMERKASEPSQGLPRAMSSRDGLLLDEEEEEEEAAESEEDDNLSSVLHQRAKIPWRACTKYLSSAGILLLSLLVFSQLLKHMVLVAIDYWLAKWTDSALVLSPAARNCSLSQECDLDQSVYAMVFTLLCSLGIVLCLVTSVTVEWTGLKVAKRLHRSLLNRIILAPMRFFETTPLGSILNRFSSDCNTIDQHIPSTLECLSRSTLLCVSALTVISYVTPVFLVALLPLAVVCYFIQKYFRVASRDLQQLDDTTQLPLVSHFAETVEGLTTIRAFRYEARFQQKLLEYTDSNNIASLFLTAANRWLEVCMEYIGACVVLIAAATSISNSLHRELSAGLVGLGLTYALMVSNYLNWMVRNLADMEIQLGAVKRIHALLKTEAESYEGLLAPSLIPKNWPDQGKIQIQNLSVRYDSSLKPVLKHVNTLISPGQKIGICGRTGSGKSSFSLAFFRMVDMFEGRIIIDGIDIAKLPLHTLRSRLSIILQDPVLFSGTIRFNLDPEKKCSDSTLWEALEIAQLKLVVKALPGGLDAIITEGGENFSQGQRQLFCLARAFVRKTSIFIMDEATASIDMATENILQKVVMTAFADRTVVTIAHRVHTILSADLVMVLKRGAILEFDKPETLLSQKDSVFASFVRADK", "assay": "Receptor binding assay panel: Potassium Channel (KATP)", "protocol": "as §1"}, "GABAA, Muscimol, Central": {"test_system": "GABAA, Muscimol, Central", "assay": "Receptor binding assay panel: GABAA, Muscimol, Central", "parameters": "species or system rat", "conditions": "10 μM", "protocol": "as §1"}, "[5]": {"biological_target": "Protein Tyrosine Kinase, Src (Homo sapiens (Human), UniProt P12931)", "assay": "Receptor binding assay panel: Protein Tyrosine Kinase, Src", "type": "biochemical"}, "Dopamine D1": {"biological_target": "Dopamine D1 (Homo sapiens (Human), UniProt P21728)", "assay": "Receptor binding assay panel: Dopamine D1"}, "Imidazoline I2, Central": {"test_system": "Imidazoline I2, Central", "assay": "Receptor binding assay panel: Imidazoline I2, Central", "parameters": "species or system rat", "conditions": "10 μM", "protocol": "as §1"}, "[6]": {"biological_target": "Protein Tyrosine Kinase, ABL1 (Homo sapiens (Human), UniProt P00519)", "assay": "Receptor binding assay panel: Protein Tyrosine Kinase, ABL1", "type": "biochemical"}, "[7]": {"test_system": "Calcium Channel L-type, Dihydropyridine", "assay": "Receptor binding assay panel: Calcium Channel L-type, Dihydropyridine", "parameters": "species or system rat", "conditions": "10 μM"}, "Peptidase, Renin": {"biological_target": "Peptidase, Renin (Homo sapiens (Human), UniProt P00797)", "assay": "Receptor binding assay panel: Peptidase, Renin", "type": "biochemical"}, "Dopamine D3": {"biological_target": "Dopamine D3 (Homo sapiens (Human), UniProt P35462)", "sequence (P35462 whole entry)": "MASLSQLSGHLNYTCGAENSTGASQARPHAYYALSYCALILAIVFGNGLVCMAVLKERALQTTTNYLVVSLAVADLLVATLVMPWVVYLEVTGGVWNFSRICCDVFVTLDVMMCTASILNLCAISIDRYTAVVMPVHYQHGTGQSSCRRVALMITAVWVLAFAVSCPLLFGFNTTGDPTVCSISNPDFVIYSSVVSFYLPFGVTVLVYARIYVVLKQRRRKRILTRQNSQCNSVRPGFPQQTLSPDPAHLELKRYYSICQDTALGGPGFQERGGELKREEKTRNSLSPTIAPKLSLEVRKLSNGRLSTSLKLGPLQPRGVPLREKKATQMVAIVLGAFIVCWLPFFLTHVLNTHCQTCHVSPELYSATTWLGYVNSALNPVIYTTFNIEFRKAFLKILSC", "assay": "Receptor binding assay panel: Dopamine D3"}, "[8]": {"test_system": "Serotonin (5-Hydroxytryptamine) 5-HT1, non selective", "assay": "Receptor binding assay panel: Serotonin (5-Hydroxytryptamine) 5-HT1, non selective", "parameters": "species or system rat", "conditions": "10 μM"}, "Angiotensin AT2": {"biological_target": "Angiotensin AT2 (Homo sapiens (Human), UniProt P50052)", "sequence (P50052 whole entry)": "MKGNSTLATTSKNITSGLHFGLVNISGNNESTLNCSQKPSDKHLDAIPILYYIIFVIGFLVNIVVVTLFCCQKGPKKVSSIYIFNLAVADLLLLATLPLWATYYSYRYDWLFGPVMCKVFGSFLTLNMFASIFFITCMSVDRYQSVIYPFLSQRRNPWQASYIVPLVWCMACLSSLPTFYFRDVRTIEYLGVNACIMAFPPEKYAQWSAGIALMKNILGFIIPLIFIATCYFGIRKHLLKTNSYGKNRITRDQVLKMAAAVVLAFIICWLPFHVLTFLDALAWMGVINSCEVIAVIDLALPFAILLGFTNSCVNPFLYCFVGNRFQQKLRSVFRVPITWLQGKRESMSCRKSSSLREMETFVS", "assay": "Receptor binding assay panel: Angiotensin AT2"}},
  "note": "Where a name gives a salt, the structure may show the parent alone.",
  "data": [
    {"smiles": "C[C@]12CC[C@H](CC(=O)O)CC1C(O)CC1C2CC[C@]2(C)C(=O)CCC12", "note": "(stereo in doubt) [CVie216-salt, 2-(6beta-hydroxy-17-oxoandrostane-3-yl) acetic acid]", "values": [
      {"measurement": "inhibition at 10 µM", "setting": "Estrogen ERα", "result": -3, "unit": "%"},
      {"measurement": "inhibition at 10 µM", "setting": "Muscarinic M2", "result": -20, "unit": "%"},
      {"measurement": "inhibition at 10 µM", "setting": "Insulin", "result": 4, "unit": "%"},
      {"measurement": "inhibition at 10 µM", "setting": "Histamine H1", "result": 12, "unit": "%"},
      {"measurement": "inhibition at 10 µM", "setting": "Progesterone PR-B", "result": 1, "unit": "%"},
      {"measurement": "inhibition at 10 µM", "setting": "Sigma σ2", "result": 4, "unit": "%"},
      {"measurement": "% inhib", "setting": "[1]", "result": "−7", "unit": "%"},
      {"measurement": "inhibition at 10 µM", "setting": "Estrogen ERβ", "result": -6, "unit": "%"},
      {"measurement": "% inhib", "setting": "[2]", "result": 1, "unit": "%"},
      {"measurement": "inhibition at 10 µM", "setting": "[3]", "result": -3, "unit": "%"},
      {"measurement": "inhibition at 10 µM", "setting": "Muscarinic M5", "result": 0, "unit": "%"},
      {"measurement": "inhibition at 10 µM", "setting": "CYP450, 19 (CYP19)", "result": 0, "unit": "%"},
      {"measurement": "inhibition at 10 µM", "setting": "Angiotensin AT1", "result": 1, "unit": "%"},
      {"measurement": "inhibition at 10 µM", "setting": "Adenosine A1", "result": -1, "unit": "%"},
      {"measurement": "interaction on a panel of receptors (in words)", "setting": "panel of receptors", "result": "No significant interaction"},
      {"measurement": "% inhib", "setting": "Phorbol Ester", "result": "−7", "unit": "%"},
      {"measurement": "inhibition at 10 µM", "setting": "Adrenergic β2", "result": -6, "unit": "%"},
      {"measurement": "inhibition at 10 µM", "setting": "Adrenergic α2A", "result": -2, "unit": "%"},
      {"measurement": "inhibition at 10 µM", "setting": "[4]", "result": 2, "unit": "%"},
      {"measurement": "inhibition at 10 µM", "setting": "Dopamine D2s", "result": -4, "unit": "%"},
      {"measurement": "inhibition at 10 µM", "setting": "Monoamine Oxidase MAO-A", "result": 1, "unit": "%"},
      {"measurement": "% inhib", "setting": "Sodium Channel, Site 2", "result": "−5", "unit": "%"},
      {"measurement": "inhibition at 10 µM", "setting": "hERG potassium channel", "result": 0, "unit": "%"},
      {"measurement": "inhibition at 10 µM", "setting": "Potassium Channel (KATP)", "result": -11, "unit": "%"},
      {"measurement": "% inhib", "setting": "GABAA, Muscimol, Central", "result": 2, "unit": "%"},
      {"measurement": "inhibition at 10 µM", "setting": "[5]", "result": 2, "unit": "%"},
      {"measurement": "inhibition at 10 µM", "setting": "Dopamine D1", "result": 13, "unit": "%"},
      {"measurement": "% inhib", "setting": "Imidazoline I2, Central", "result": 1, "unit": "%"},
      {"measurement": "inhibition at 10 µM", "setting": "[6]", "result": 13, "unit": "%"},
      {"measurement": "% inhib", "setting": "[7]", "result": "−20", "unit": "%"},
      {"measurement": "inhibition at 10 µM", "setting": "Peptidase, Renin", "result": 7, "unit": "%"},
      {"measurement": "inhibition at 10 µM", "setting": "Dopamine D3", "result": 0, "unit": "%"},
      {"measurement": "% inhib", "setting": "[8]", "result": 12, "unit": "%"},
      {"measurement": "inhibition at 10 µM", "setting": "Angiotensin AT2", "result": -6, "unit": "%"}
    ]}
  ]
}
